In patent US20060292186A1, “Self-nanoemulsifying oily formulation for the administration of poorly water-soluble drugs” (Novagali Pharma SA, priority 2003, published 2006):

What was measured:
[1] = Dose versus plasma AUC pharmacokinetic study of paclitaxel SNEOF after cyclosporin A oral pre-treatment in wild type mice; type: in vivo, FVB Wild type Mice; conditions: 10-60 mg/kg p.o., CsA constant at 10 mg/kg
Protocol: Each cohort consisted of 20 mice. At the specified times, animals were anaesthetized using metofane. After fixation on their back, with their chest in an upright position blood was collected by cardiac puncture using a 1 mL polypropylene syringe fitted with 25 g needle. Blood was transferred immediately into tubes containing potassium EDTA as anticoagulant and mixed by inversion. Blood samples were centrifuged vial for 5 min at 4000 g. The supernatant plasma fraction was transferred to a clean tube with appropriate label and stored at -20° C. until analyses. […] Plasma samples for subsequent analysis were obtained from all animals. […] Plasma concentration data were reported. Plasma concentrations versus time curves were fitted using the […] software package (version 3.0) and pharmacokinetic parameters: […]

[2] = humans, without enhancer; cited from earlier work

## CC(=O)O[C@H]1C(=O)[C@@]2(C)[C@H]([C@H](OC(=O)c3ccccc3)[C@]3(O)C[C@H](OC(=O)[C@H](O)[C@@H](NC(=O)c4ccccc4)c4ccccc4)C(C)=C1C3(C)C)[C@]1(OC(C)=O)CO[C@@H]1C[C@@H]2O [paclitaxel, Paclitaxel]
[1]
  linearity of oral bioavailability with dose: not linear but decreased significantly with dose
[2]
  systemic bioavailability after oral paclitaxel administration: less than 6%
